Assay results: US12064516B2, “Pharmaceutical formulations and uses thereof” (Aldeyra Therapeutics, Inc., priority 2020, dated 2024)

What was measured:
[1] = test system: malondialdehyde (MDA); assay: Plasma malondialdehyde (MDA) in Phase 1 subjects administered I-1 orally; format: in vivo, human; conditions: healthy volunteers
[2] = Solubility of I-1 drug substance; format: physicochemical
Description: Spray-drying was selected for formulation of this compound. By co-precipitating the compound with a polymer in a stable amorphous solid dispersion, spray-drying improved the dissolution rates and enhanced the bioavailability. […] This made I-1 an appropriate candidate for the application of formulation through spray drying dispersion (SDD).

[3] = Pharmacokinetic comparison of ADX-102 (reproxalap) and compound I-1 in rats; format: in vivo, Sprague-Dawley rats
Protocol: Compound I-1 is the des-chloro analog of ADX-102. […] We have therefore investigated compound I-1 in 90-day toxicology studies in rat and dog as well as 10-day studies in man. We compared two data sets to contrast the pharmacokinetics of the two test articles. A 50 mg/kg oral dose PK study of compound I-1 was conducted in Sprague-Dawley rats using methylcellulose suspension. […] Both studies also incorporated intravenous administration in captisol for the calculation of clearance and steady state volume of distribution.
Both studies were dosed by oral gavage. Bioanalysis was conducted using LC-MS/MS. Further details of the experimental approach can be found in the individual reports.

[4] = human, in vivo, 10 days
Description: (§1) This Phase 1 trial was a first-in-human, randomized, double-blind, placebo-controlled trial with a 3:1 randomization of I-1 and placebo. The trial was comprised of single ascending dose (SAD) and multiple ascending dose (MAD) protocols. MAD drug exposure was 10 days of twice-per-day (BID) administration.
(§2) A total of 54 healthy volunteers were randomized across two cohorts of varying doses: 41 subjects received I-1 and 13 subjects received placebo.
(§3) Thirty-one (31) subjects were randomized to varying doses: 23 subjects received I-1 and 8 subjects received placebo.

[5] = Phase 1 clinical trial, multiple ascending dose (MAD) pharmacokinetics; format: in vivo, human; conditions: for Cmax / half-life / AUC(0-t): human, in vivo; for AUC(0-t): read-out: Mean AUC0-12
Description: PK data are presented below.

[6] = Tolerability as a systemic dose, I-1 versus ADX-102; format: in vivo
Protocol: Compound I-1 is the des-chloro analog of ADX-102. […] We have therefore investigated compound I-1 in 90-day toxicology studies in rat and dog as well as 10-day studies in man. We compared two data sets to contrast the pharmacokinetics of the two test articles. A 50 mg/kg oral dose PK study of compound I-1 was conducted in Sprague-Dawley rats using methylcellulose suspension. A pharmacokinetic study of ADX-102 was also conducted in Sprague Dawley rats at a dose of 10 mg/kg in a methylcellulose suspension that also contained Tween 80. Both studies also incorporated intravenous administration in captisol for the calculation of clearance and steady state volume of distribution.

[7] = Phase 1 clinical trial, safety and tolerability (adverse events, labs, vitals, QTcF); conditions: for subjects with TEAEs, %: subjects who received I-1
Description: as §1, §2, §3

[8] = Pharmacokinetic comparison of ADX-102 (reproxalap) and compound I-1 in rats; format: in vivo, Sprague-Dawley rats; conditions: Sprague-Dawley, in vivo, SD Rat
[9] = SD Rat, oral gavage 50 mg/kg, 0.5% MC
[10] = Sprague-Dawley, in vivo, SD Rat, oral gavage 50 mg/kg, 0.5% MC

SMILES: CC(C)(O)c1nc2ccccc2cc1N [I-1]
- free MDA levels in plasma [1]: decrease in free MDA levels
- solubility in aqueous media [2]: poor solubility in aqueous media
- solubility in non-polar solvents [2]: increased solubility in non-polar solvents
- AUC 0-inf/Dose [3, 9]: 153
- AUC 0-t/Dose [3, 9]: 146
- Vd ([3]; Sprague-Dawley, in vivo, SD Rat, intravenous data using captisol formulation, read-out: Vss): 3.13 L/kg
- AUC(0-inf) [3, 10]: 7670 ng·h/mL
- AUC(0-t) [3, 10]: 7300 ng·h/mL
- Cmax [3, 10]: 4990 ng/mL
- Tmax [3, 10]: 0.32 h
- dose-normalized AUC relative to ADX-102 ([3]; rats, oral, I-1 50 mg/kg vs ADX-102 10 mg/kg): approximately double
- Influenza like illness, N subjects [4]: 0
- accumulation of the drug ([5]; across all cohorts): Little to no accumulation
- relation of Cmax and AUC to dose ([5]; as dose increased, Phase 1 cohorts): linear correlation
- Cmax ([5]; oral, 600 mg, top dose 600 mg BID, read-out: Cmax expressed as molar concentration): ~8.5 µM
- half-life ([5]; oral, multiple day exposures, across cohorts and days, read-out: half-life (t1/2), range of mean values): 3.49 to 6.83 h
- AUC(0-t) ([5]; po, 50 mg, oral 50 mg BID, Day 1): ~148 ng·h/mL
- Cmax ([5]; po, 50 mg, oral 50 mg BID, Day 1, read-out: Mean Cmax): ~70.2 ng/mL
- half-life ([5]; po, 50 mg, oral 50 mg BID, Day 1, read-out: Mean t1/2 (converted)): ~3.49 h
- AUC(0-t) ([5]; po, 50 mg, oral 50 mg BID, Day 10): 252 ng·h/mL
- Cmax ([5]; po, 50 mg, oral 50 mg BID, Day 10, read-out: Mean Cmax): 85.9 ng/mL
- half-life ([5]; po, 50 mg, oral 50 mg BID, Day 10, read-out: Mean t1/2 (converted)): 5.25 h
- AUC(0-t) ([5]; po, 150 mg, oral 150 mg BID, Day 1): ~809 ng·h/mL
- Cmax ([5]; po, 150 mg, oral 150 mg BID, Day 1, read-out: Mean Cmax): ~343 ng/mL
- half-life ([5]; po, 150 mg, oral 150 mg BID, Day 1, read-out: Mean t1/2 (converted)): ~4.86 h
- AUC(0-t) ([5]; po, 150 mg, oral 150 mg BID, Day 10): 1170 ng·h/mL
- Cmax ([5]; po, 150 mg, oral 150 mg BID, Day 10, read-out: Mean Cmax): 320 ng/mL
- half-life ([5]; po, 150 mg, oral 150 mg BID, Day 10, read-out: Mean t1/2 (converted)): 6.34 h
- AUC(0-t) ([5]; po, 350 mg, oral 350 mg BID, Day 1): ~2950 ng·h/mL
- Cmax ([5]; po, 350 mg, oral 350 mg BID, Day 1, read-out: Mean Cmax): ~1190 ng/mL
- half-life ([5]; po, 350 mg, oral 350 mg BID, Day 1, read-out: Mean t1/2 (converted)): ~5.67 h
- AUC(0-t) ([5]; po, 350 mg, oral 350 mg BID, Day 10): 4340 ng·h/mL
- Cmax ([5]; po, 350 mg, oral 350 mg BID, Day 10, read-out: Mean Cmax): 1230 ng/mL
- half-life ([5]; po, 350 mg, oral 350 mg BID, Day 10, read-out: Mean t1/2 (converted)): 6.83 h
- AUC(0-t) ([5]; po, 600 mg, oral 600 mg BID, Day 1): ~6450 ng·h/mL
- Cmax ([5]; po, 600 mg, oral 600 mg BID, Day 1, read-out: Mean Cmax): ~2230 ng/mL
- half-life ([5]; po, 600 mg, oral 600 mg BID, Day 1, read-out: Mean t1/2 (converted)): ~4.15 h
- AUC(0-t) ([5]; po, 600 mg, oral 600 mg BID, Day 10): 7220 ng·h/mL
- Cmax ([5]; po, 600 mg, oral 600 mg BID, Day 10, read-out: Mean Cmax): 1700 ng/mL
- half-life ([5]; po, 600 mg, oral 600 mg BID, Day 10, read-out: Mean t1/2 (converted)): 4.66 h
- Mean AUC0-12 ([5]; oral 50 mg BID, Day 1): 148 ng·h/mL
- Mean AUC0-12 ([5]; oral 50 mg BID, Day 10): ~252 ng·h/mL
- Mean AUC0-12 ([5]; oral 150 mg BID, Day 1): 809 ng·h/mL
- Mean AUC0-12 ([5]; oral 150 mg BID, Day 10): ~1170 ng·h/mL
- Mean AUC0-12 ([5]; oral 350 mg BID, Day 1): 2950 ng·h/mL
- Mean AUC0-12 ([5]; oral 350 mg BID, Day 10): ~4340 ng·h/mL
- Mean AUC0-12 ([5]; oral 600 mg BID, Day 1): 6450 ng·h/mL
- Mean AUC0-12 ([5]; oral 600 mg BID, Day 10): ~7220 ng·h/mL
- tolerability as a systemic dose compared with ADX-102 [6]: generally better tolerated than ADX-102
- intensity and relatedness of TEAEs ([7]; MAD): mild and deemed not to be related to the study drug
- subjects with TEAEs, % ([7]; MAD): 17.4%
- Pruritis, % of subjects ([7]; MAD, I-1 50 mg BID): (16.7%)
- Pruritis, N subjects ([7]; MAD, I-1 50 mg BID): 1
- Rhinitis, N subjects ([7]; MAD, I-1 50 mg BID): 0
- URTI, N subjects ([7]; MAD, I-1 50 mg BID): 0
- Headache, N subjects ([7]; MAD, I-1 150 mg BID): 0
- Ligament sprain, N subjects ([7]; MAD, I-1 150 mg BID): 0
- Muscle spasms, N subjects ([7]; MAD, I-1 150 mg BID): 0
- Nasal congestion, % of subjects ([7]; MAD, I-1 150 mg BID): (16.7%)
- Nasal congestion, N subjects ([7]; MAD, I-1 150 mg BID): 1
- Pruritis, N subjects ([7]; MAD, I-1 150 mg BID): 0
- Rhinitis, N subjects ([7]; MAD, I-1 150 mg BID): 0
- URTI, N subjects ([7]; MAD, I-1 150 mg BID): 0
- Headache, N subjects ([7]; MAD, I-1 350 mg BID): 0
- Ligament sprain, N subjects ([7]; MAD, I-1 350 mg BID): 0
- Muscle spasms, N subjects ([7]; MAD, I-1 350 mg BID): 0
- Nasal congestion, N subjects ([7]; MAD, I-1 350 mg BID): 0
- Pruritis, N subjects ([7]; MAD, I-1 350 mg BID): 0
- URTI, % of subjects ([7]; MAD, I-1 350 mg BID): (20.0%)
- URTI, N subjects ([7]; MAD, I-1 350 mg BID): 1
- Headache, N subjects ([7]; MAD, I-1 600 mg BID): 0
- Ligament sprain, N subjects ([7]; MAD, I-1 600 mg BID): 0
- Muscle spasms, N subjects ([7]; MAD, I-1 600 mg BID): 0
- Nasal congestion, N subjects ([7]; MAD, I-1 600 mg BID): 0
- Pruritis, N subjects ([7]; MAD, I-1 600 mg BID): 0
- Rhinitis, % of subjects ([7]; MAD, I-1 600 mg BID): (16.7%)
- Rhinitis, N subjects ([7]; MAD, I-1 600 mg BID): 1
- URTI, N subjects ([7]; MAD, I-1 600 mg BID): 0
- Headache, N subjects ([7]; MAD, I-1 Total): 0
- Ligament sprain, N subjects ([7]; MAD, I-1 Total): 0
- Muscle spasms, N subjects ([7]; MAD, I-1 Total): 0
- Nasal congestion, % of subjects ([7]; MAD, I-1 Total): (4.3%)
- Nasal congestion, N subjects ([7]; MAD, I-1 Total): 1
- Pruritis, % of subjects ([7]; MAD, I-1 Total): (4.3%)
- Pruritis, N subjects ([7]; MAD, I-1 Total): 1
- Rhinitis, % of subjects ([7]; MAD, I-1 Total): (4.3%)
- Rhinitis, N subjects ([7]; MAD, I-1 Total): 1
- URTI, % of subjects ([7]; MAD, I-1 Total): (4.3%)
- URTI, N subjects ([7]; MAD, I-1 Total): 1
- QTcF prolongation ([7]; Phase 1): did not lead to QTcF prolongation
- changes in heart rate, blood pressure, respiratory rate, pulse oximetry, temperature ([7]; Phase 1): No clinically meaningful changes
- changes in hepatic or renal analytes (ALT, AST, ALP, amylase, GGT, bilirubin, creatinine kinase, creatinine) ([7]; Phase 1): No clinically meaningful changes
- changes in serum glucose ([7]; Phase 1): No changes
- hematological changes ([7]; Phase 1): No clinically significant hematological changes
- subjects with QTcF ≥500 msec or a change of ≥60 msec from baseline ([7]; Phase 1): no subjects
- subjects with QTcF change of >30 msec from baseline ([7]; Phase 1, three in SAD, two in MAD): Five
- interruptions or discontinuations of study drug administration ([7]; Phase 1 SAD and MAD): no interruptions or discontinuations
- overall safety and tolerability ([7]; Phase 1 SAD and MAD): safe and tolerable
- TEAE description ([7]; SAD, one subject in 100 mg dose cohort): syncope lasting less than a minute, moderate in intensity and deemed to be related to the study drug
- TEAE description ([7]; SAD, one subject, single dose of 700 mg): sinus congestion, mild in intensity and deemed not to be related to I-1
- subjects with TEAEs, % ([7]; SAD): 3.7%
- subjects with treatment emergent adverse events (TEAEs), % ([7]; all subjects receiving I-1 (SAD and MAD)): 9.4%
- clearance ([8]; intravenous data using captisol formulation): 65.8 mL/min/kg
- half-life ([8]; oral gavage 50 mg/kg, 0.5% MC): 2.96 h
